≈ marks a conversion by molar mass, not a printed value. Read-outs that look alike come from different tables or passages of the source.
Legend:
[1] = system: Arterial blood pressure (ABP); assay: In vivo hypotensive activity: arterial blood pressure (ABP) in anesthetized guinea pig; details: intravenous; for ABP ED20 (dose which reduces arterial blood pressure by 20%): anesthetized guinea pig, hypotensive activity; for Ratio ABP/ITP (hypotensive ED20/bronchodilating ED50): guinea pig, larger ratio = greater separation of bronchodilator activity and hypotensive side effect
Protocol: (§1) The trachea of anesthetized guinea pig was cannulated and the ITP recorded on a polygraph under artificial ventilation. Arterial blood pressure (ABP; reflecting hypotensive activity) was also measured during the experiment. Either intravenous or intraduodenal routes of administration are used. […] The ratio of hypotensive ED20 /bronchodilating ED50 reflects an assessment of the separation of desirable bronchodilator activity from undesirable cardiovascular (hypotensive) effect in the compounds. The larger the ABP/ITP ratio, the greater separation of bronchodilator activity and hypotensive side effect.

[2] = system: Tracheal chains of guinea pig; assay: In vitro bronchodilator activity, tracheal chains of guinea pig (Magnus method); assay type: cell-based; details: Cavia porcellus, relative to 0.1 mcg./ml. isoproterenol, read-out: EC50 (concentration producing a relaxation which is 50% of the maximum response to 0.1 mcg./ml. of isoproterenol)
Protocol: Tracheal chains of guinea pig were prepared by the method of A. Akcasu, Arch. Int. Pharmcodyn. […] The response to each test compound was recorded by the Magnus method and expressed as a percentage of the maximum response obtained with 0.1 mcg./ml. of isoproterenol prior to each experiment.

[3] = system: intratracheal pressure (ITP) in the guinea pig; assay: In vivo bronchodilator activity: decrease in intratracheal pressure (ITP) in anesthetized guinea pig; details: Cavia porcellus, intravenous, read-out: ITP ED50 (dose resulting in a 50% decrease in intratracheal pressure)
Protocol: as §1

[4] = prior art (U.S. Pat. No. 3,930,005), cited from earlier work

Structure (SMILES) | ABP ED20 (dose which reduces arterial blood pressure by 20%) [1] [mg/kg] | Ratio ABP/ITP (hypotensive ED20/bronchodilating ED50) [1] | EC50 [2] [µg/mL] | ED50 [3] [mg/kg] | anti-inflammatory activity ([4]; listed as 9-cyclohexyl-9H-adenine) | anti-inflammatory activity ([4]; listed as drawing 2)
CCCOc1nc(N)c2ncn(Cc3ccccc3)c2n1 [9-Benzyl-2-n-propoxy-9H-adenine] | 1.7 | 2.0 | 0.34 (≈ 1.2 µM) | 0.83 |  | 
Nc1ncnc2c1ncn2C1CCCCC1 [9-Cyclohexyl-9H-adenine, 9-cyclohexyl-9H-adenine] | > 3 | > 1.2 | 0.91 (≈ 4.19 µM) | 0.24 | no activity or activity of no practical value | relatively inactive
Cn1c(=O)c2[nH]cnc2n(C)c1=O [Aminophylline, reference compound] | 1.4 |  |  |  |  | 

Reference: patent publication US4278675A, “Bronchodilating process” (Bristol-Myers Company, priority 1979, dated 1981)
